Biological target: T1, thrombin (Homo sapiens, UniProt P00734)
T1 construct: consists of two polypeptide chains of 36 (light chain) and 259 amino acid
Assay: Thrombin inhibition screen of crude macrocycle reactions (residual thrombin activity, fluorogenic substrate Z-Gly-Gly-Arg-AMC)
Format: biochemical
Conditions: 10 µM macrocycle concentration, macrocycles containing acid 14, crude reaction; for % thrombin activity, Repeat screen: replicate reaction and screen
In short: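 Residual activity was measured as the AMC release rate after adding 50 μM Z-Gly-Gly-Arg-AMC. This followed a 10-min room-temperature preincubation of 2 nM thrombin with 10 μM single macrocycles in pH 7.4 Tris buffer (0.6% DMSO). Percent inhibition was taken against the mean slope of DMSO controls.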

| Compound | % thrombin activity, Original screen [%] | % thrombin activity, Repeat screen [%] | % thrombin activity, Original screen (listed as X B4 w D1) [%] | % thrombin activity, Repeat screen (listed as X B4 w D1) [%] |
| --- | --- | --- | --- | --- |
| O=C1CCSSCCNC(=O)C2(CCN(C(=O)c3ccc(Cl)s3)CC2)NC(=O)[C@H](Cc2c[nH]cn2)NC(=O)CCN1 [X B2 H D6] | 96.8 | 101.7 | – | – |
| O=C1CCSSCCNC(=O)[C@@H](CNC(=O)c2ccc(Cl)s2)NC(=O)[C@H](Cc2c[nH]c3ccccc23)NC(=O)CCN1 [X B2 W D4] | 61.5 | 68.8 | – | – |
| C[C@H]1NC(=O)CCNC(=O)CCSSCCNC(=O)C2(CCN(C(=O)c3ccc(Cl)s3)CC2)NC1=O [X B2 a D6] | 96.5 | 92.7 | – | – |
| O=C1CCSSCCNC(=O)C(Cc2ccccc2)NC(=O)C(CNC(=O)c2ccc(Cl)s2)NC(=O)c2ccc(cc2)CN1 (centres unmarked) [X B3 D3 f] | 91.1 | 96.6 | – | – |
| O=C1CCSSCCNC(=O)C(CNC(=O)c2ccc(Cl)s2)NC(=O)C(Cc2ccccc2)NC(=O)c2ccc(cc2)CN1 (centres unmarked) [X B3 F D3] | 62.7 | 59.9 | – | – |
| CC(C)C[C@@H]1NC(=O)c2ccc(cc2)CNC(=O)CCSSCCNC(=O)C2(CCN(C(=O)c3ccc(Cl)s3)CC2)NC1=O [X B3 L D6] | 91.2 | 94.4 | – | – |
| CC(C)[C@@H]1NC(=O)c2ccc(cc2)CNC(=O)CCSSCCNC(=O)[C@H](CCCCNC(=O)c2ccc(Cl)s2)NC1=O [X B3 V D1] | 102.1 | 107.7 | – | – |
| O=C1CCSSCCNC(=O)[C@H](CCCCNC(=O)c2ccc(Cl)s2)NC(=O)[C@@H](Cc2ccc(O)cc2)NC(=O)c2ccc(cc2)CN1 [X B3 y D1] | 106.6 | 108.9 | – | – |
| O=C1CCSSCCNC(=O)[C@H](CNC(=O)c2ccc(Cl)s2)NC(=O)[C@@H](Cc2ccc(O)cc2)NC(=O)c2ccc(cc2)CN1 [X B3 y D3] | 88.0 | 89.2 | – | – |
| O=C(NCCCCC1NC(=O)C2CCCN(C2)C(=O)CCSSCCNC(=O)C(CO)NC1=O)c1ccc(Cl)s1 (centres unmarked) [X B4 D1 S] | 96.9 | 99.9 | – | – |
| CCC(C)C1NC(=O)C(CNC(=O)c2ccc(Cl)s2)NC(=O)C2CCCN(C2)C(=O)CCSSCCNC1=O (centres unmarked) [X B4 D3 I] | 64.0 | 61.8 | – | – |
| CC(C)[C@@H]1NC(=O)[C@H](CNC(=O)c2ccc(Cl)s2)NC(=O)[C@H]2CCCN(C2)C(=O)CCSSCCNC1=O [X B4 D3 V] | 62.4 | 58.2 | – | – |
| O=C1NC2(CCN(C(=O)c3ccc(Cl)s3)CC2)C(=O)N[C@@H](CO)C(=O)NCCSSCCC(=O)N2CCC[C@H]1C2 [X B4 D6 S] | 87.7 | 85.3 | – | – |
| CC(C)C[C@@H]1NC(=O)[C@H]2CCCN(C2)C(=O)CCSSCCNC(=O)[C@@H](CNC(=O)c2ccc(Cl)s2)NC1=O [X B4 L D4] | 97.0 | 93.7 | – | – |
| O=C(NCCCC[C@@H]1NC(=O)[C@H](Cc2c[nH]c3ccccc23)NC(=O)[C@H]2CCCN(C2)C(=O)CCSSCCNC1=O)c1ccc(Cl)s1 [X B4 W D1] | 84.9 | 86.6 | 105.6 | 113.0 |
| CC[C@H](C)[C@@H]1NC(=O)[C@H](CCCNC(=O)c2ccc(Cl)s2)NC(=O)c2cccc(c2)CNC(=O)CCSSCCNC1=O [X B5 D2 I] | 86.0 | 83.0 | – | – |
| C[C@H]1NC(=O)C2(CCN(C(=O)c3ccc(Cl)s3)CC2)NC(=O)c2cccc(c2)CNC(=O)CCSSCCNC1=O [X B5 D6 a] | 86.2 | 89.2 | – | – |
| O=C1CCSSCCNC(=O)[C@H](CCCNC(=O)c2ccc(Cl)s2)NC(=O)[C@H](Cc2ccccc2)NC(=O)c2cccc(c2)CN1 [X B5 F D2] | 81.9 | 80.4 | – | – |
| O=C1CCSSCCNC(=O)C(CCCCNC(=O)c2ccc(Cl)s2)NC(=O)C(CO)NC(=O)c2cccc(c2)CN1 (centres unmarked) [X B5 S D1] | 96.4 | 100.5 | – | – |
| O=C1CCSSCCNC(=O)C(Cc2c[nH]c3ccccc23)NC(=O)C(CNC(=O)c2ccc(Cl)s2)NC(=O)C2(CC2)CN1 (centres unmarked) [X B6 D3 w] | 92.5 | 95.8 | – | – |

Second part, the compound after the results:

| % thrombin activity, Original screen [%] | % thrombin activity, Repeat screen [%] | % thrombin activity, Original screen (listed as X B4 w D1) [%] | % thrombin activity, Repeat screen (listed as X B4 w D1) [%] | Compound |
| --- | --- | --- | --- | --- |
| 93.8 | 99.5 | – | – | NC(=O)CC[C@@H]1NC(=O)[C@H]2CCCN(C2)C(=O)CCSSCCNC(=O)C2(CCN(C(=O)c3ccc(Cl)s3)CC2)NC1=O [X B4 Q D6] |
| 104.5 | 106.7 | – | – | O=C(NC[C@H]1NC(=O)[C@@H](CO)NC(=O)[C@H]2CCCN(C2)C(=O)CCSSCCNC1=O)c1ccc(Cl)s1 [X B4 s D4] |
| 91.3 | 95.8 | – | – | O=C1CCSSCCNC(=O)C(Cc2ccccc2)NC(=O)C2CC(NC(=O)c3ccc(Cl)s3)CN2C(=O)c2cccc(c2)CN1 (centres unmarked) [X B5 D5 f] |
| 112.0 | 122.3 | – | – | O=C1CCSSCCNC(=O)C(Cc2c[nH]c3ccccc23)NC(=O)C2CC(NC(=O)c3ccc(Cl)s3)CN2C(=O)c2cccc(c2)CN1 (centres unmarked) [X B5 D5 w] |
| 54.9 | 55.7 | – | – | NC(=O)CC[C@@H]1NC(=O)C2(CCN(C(=O)c3ccc(Cl)s3)CC2)NC(=O)c2cccc(c2)CNC(=O)CCSSCCNC1=O [X B5 D6 Q] |
| 95.3 | 96.2 | – | – | NC(=O)CC[C@@H]1NC(=O)c2cccc(c2)CNC(=O)CCSSCCNC(=O)[C@H](CNC(=O)c2ccc(Cl)s2)NC1=O [X B5 Q D3] |
| 107.3 | 102.8 | – | – | CC(C)CC1NC(=O)C(CCCNC(=O)c2ccc(Cl)s2)NC(=O)C2(CC2)CNC(=O)CCSSCCNC1=O (centres unmarked) [X B6 D2 L] |
| 87.3 | 88.9 | – | – | O=C1CCSSCCNC(=O)[C@H](Cc2c[nH]c3ccccc23)NC(=O)[C@H](CCCNC(=O)c2ccc(Cl)s2)NC(=O)C2(CC2)CN1 [X B6 D2 W] |
| 70.7 | 68.6 | – | – | O=C1CCSSCCNC(=O)[C@H](Cc2ccccc2)NC(=O)[C@H](CNC(=O)c2ccc(Cl)s2)NC(=O)C2(CC2)CN1 [X B6 D3 F] |
| 109.4 | 121.6 | – | – | NC(=O)CCC1NC(=O)C2CC(NC(=O)c3ccc(Cl)s3)CN2C(=O)C2(CC2)CNC(=O)CCSSCCNC1=O (centres unmarked) [X B6 D5 Q] |
| 60.0 | 43.4 | – | – | CC(C)C[C@@H]1NC(=O)C2(CC2)CNC(=O)CCSSCCNC(=O)[C@H](CCCNC(=O)c2ccc(Cl)s2)NC1=O [X B6 L D2] |
| 99.3 | 95.8 | – | – | NC(=O)CC[C@@H]1NC(=O)C2(CC2)CNC(=O)CCSSCCNC(=O)[C@H](CCCNC(=O)c2ccc(Cl)s2)NC1=O [X B6 Q D2] |
| 68.6 | 63.8 | – | – | O=C1CCSSCCNC(=O)[C@H](CNC(=O)c2ccc(Cl)s2)NC(=O)[C@H](Cc2ccc(O)cc2)NC(=O)C2(CC2)CN1 [X B6 Y D3] |

Reference: publication PMC9250534, “Synthesis and direct assay of large macrocycle diversities by combinatorial late-stage modification at picomole scale” (Nature Communications, 2022)
